Results: paper PMC10780910, “Opioid/Dopamine Receptor Binding Studies, NMR and Molecular Dynamics Simulation of LENART01 Chimera, an Opioid-Bombesin-like Peptide” (Molecules, 2024)

How the values were obtained:
[1] = system: opioid and dopamine receptors; assay: Functional [35S]GTPγS binding, spinal cord membrane; format: biochemical, rat (Wistar); conditions: for Emax ± S.E.M., ligand alone / Emax ± S.E.M., Ligand + Cyprodime / Emax / Emax ± S.E.M., Ligand + Risperidone: rat spinal cord membrane, 30 °C, 60 min; for Emax ± S.E.M., ligand alone: Tris-EGTA pH 7.4, 0.05 nM [35S]GTPγS; for Emax ± S.E.M., Ligand + Cyprodime: opioid system, + cyprodime (selective MOR antagonist); for Emax ± S.E.M., Ligand + Cyprodime / Emax / Emax ± S.E.M., Ligand + Risperidone: pH 7.4; for Emax ± S.E.M., Ligand + Cyprodime / Emax ± S.E.M., Ligand + Risperidone: *** p < 0.001 vs ligand alone; for Emax / Emax ± S.E.M., Ligand + Risperidone: dopaminergic system; for Emax: + SCH-39166 (selective D1R antagonist), ns vs ligand alone, read-out: Emax ± S.E.M., Ligand + SCH-39166; for Emax ± S.E.M., Ligand + Risperidone: + risperidone (selective D2R antagonist)
Description: (§1) Both male and female Wistar rats were used for membrane preparations (brains and spinal cords). Animals were housed at 22 ± 0.5 °C with a 12:12 h light–dark cycle. Food and water were available ad libitum. All animal manipulations were carried out according to the European Communities Council Directives ([…]) and the Hungarian Act for the Protection of Animals in Research (XXVIII.tv. 32.§).
(§2) The functional [^35S]GTPγS binding experiments were performed as previously described. In brief, the brain and spinal cord homogenates were incubated at 30 °C for 60 min in Tris-EGTA buffer (pH 7.4) containing [^35S]GTPγS (0.05 nM) and in the presence of varying concentrations of the ligand. Non-specific binding was determined in the presence of non-radiolabeled 10 μM GTPγS. The reaction was stopped by rapid filtration under vacuum (Brandel M24R Cell Harvester), and the samples were washed with cold Tris-HCl buffer. The radioactivity of the dried filters was determined by scintillation counting.

[2] = system: opioid and dopamine receptors; assay: Functional [35S]GTPγS binding, brain membrane; format: biochemical, rat (Wistar); conditions: for Emax ± S.E.M., ligand alone: Tris-EGTA pH 7.4, 0.05 nM [35S]GTPγS; for Emax ± S.E.M., Ligand + Cyprodime: opioid system, + cyprodime (selective MOR antagonist), *** p < 0.001 vs ligand alone (unpaired t-test); for Emax ± S.E.M., Ligand + Risperidone: + risperidone (selective D2R antagonist), *** p < 0.001 vs ligand alone
Description: as §1, §2

[3] = system: E. coli strains; conditions: different E. coli strains; cited from earlier work
Description: (§3) Noteworthily, the N-terminal pharmacophore of LENART01 consists of dermorphin with an amino acid sequence of YdAFGYPS. At the same time, the C-terminus was constructed from ranatensin, which was additionally heavily modified, resulting in a sequence of GHFM.

[4] = system: D2R; assay: Competitive [3H]Spiperone binding (D2R); parameters: species or system rat (Wistar); conditions: rat brain and spinal cord homogenates
Description: (§4) The chimeric peptide LENART01 was examined in [^3H]DAMGO, [^3H]SCH−23390 and [^3H]Spiperone homolog displacement in rat brains and spinal cord homogenates. The binding affinity of the hybrid and its intrinsic activity value were compared with dermorphin and ranatensin, its structural components.
(§5) Figure 3 Binding affinity of LENART01 at MOR (A,B), D1R (C,D) and D2R (E,F) receptors, respectively, using [^3H]DAMGO and [^3H]SCH−23390 and [^3H]Spiperone as radioligands. Results represent mean ± SEM of 3 independent experiments, each performed in duplicate.
as §1
(§6) Competitive analysis of the chimera activity was performed in the presence of naloxone (in case of MOR displacement studies) or SCH-23390 (for D1R) and spiperone (for D2R). […] The radioactivity of the dried filters was detected using an UltimaGold^TM MV aqueous scintillation cocktail with a Packard Tricarb 2300TR liquid scintillation counter. […]

[5] = system: MOR; assay: Competitive [3H]DAMGO binding (MOR); parameters: species or system rat (Wistar); conditions: receptor binding assay, rat brain and spinal cord homogenates
Description: as §4, §5, §1, §6

[6] = system: dopamine D2 receptor (D2R); conditions: cited from earlier work
Description: as §3

[7] = system: dopaminergic receptors; conditions: ref Zhu et al. 10; cited from earlier work
[8] = rat brain membrane, 30 °C, 60 min
[9] = rat brain membrane, 30 °C, 60 min, pH 7.4
[10] = rat brain membrane, dopaminergic system, 30 °C, 60 min, pH 7.4

| Substance | Emax ± S.E.M., ligand alone [1] | Emax ± S.E.M., Ligand + Cyprodime [1] | Emax ± S.E.M., ligand alone [2, 8] | Emax ± S.E.M., Ligand + Cyprodime [2, 9] | antimicrobial activity [3] | Emax [1] | Emax ± S.E.M., Ligand + Risperidone [1] | maximal stimulation vs dermorphin ([1]; spinal cord membrane, [35S]GTPγS) | selectivity to D2R compared to D1R ([4]; [3H]Spiperone (D2R) vs [3H]SCH-23390 (D1R), Tris-HCl pH 7.4, 3 independent experiments in duplicate) | binding to dopamine receptors ([4]; receptor binding assay in vitro, abstract statement) | Emax ([2]; rat brain membrane, dopaminergic system, + SCH-39166 (selective D1R antagonist), 30 °C, 60 min, pH 7.4, ns for chimera, *** p < 0.001 for ranatensin, read-out: Emax ± S.E.M., Ligand + SCH-39166) | Emax ± S.E.M., Ligand + Risperidone [2, 10] | dose-dependent increases in functional binding vs dermorphin ([2]; rat brain membranes, [35S]GTPγS) | effect of SCH−39166 on efficacy ([2]; selective D1R antagonist SCH−39166, tissue not specified) | effect of risperidone on stimulation ([2]; selective D2R antagonist risperidone, tissue not specified) | effect of cyprodime on efficacy ([2]; selective MOR antagonist cyprodime, tissue not specified) | binding to MOR [5] | interaction with D2R [6] | analgesia and naloxone antagonism [7] | Emax ± S.E.M., Ligand + SCH-39166 ([2]; rat brain membrane, dopaminergic system, + SCH-39166 (selective D1R antagonist), 30 °C, 60 min, pH 7.4, ns for chimera, *** p < 0.001 for ranatensin) |
| --- | --- | --- | --- | --- | --- | --- | --- | --- | --- | --- | --- | --- | --- | --- | --- | --- | --- | --- | --- | --- |
| YdAFGYPS [dermorphin, reference compound] | 140.0 ± 1.8% | 100.4 ± 0.9 *** % | 140.5 ± 2.9% | 100.0 ± 1.1 *** % | – | – | – | – | – | – | – | – | – | – | – | – | – | – | – | – |
| YdAFGYPSGHFM [LENART01] | 136.3 ± 2.2% | 100.8 ± 1.1 *** % | 140.6 ± 1.0% | 100.4 ± 1.4 *** % | antimicrobial activity against different E. coli strains | 136 ± 1.7% | 101.6 ± 1.2 *** % | less than that of dermorphin | high selectivity to D2R compared to D1R | bound to mu-opioid and dopamine receptors | 140.8 ± 0.8% | 101.1 ± 0.7 *** % | equal to the increases in dermorphin | did not significantly reverse the efficacy | brought down the stimulation of LENART01 to basal activity | reversed the efficacy | bound to mu-opioid and dopamine receptors | – | – | – |
| ranatensin [reference compound] | 119.8 ± 1.3% | – | 124.1 ± 1.9% | – | – | 117.4 ± 1.1% | 100.0 ± 0.7 *** % | – | – | – | – | 101.5 ± 1.7 *** % | – | – | – | – | did not bind to MOR | known to interact with | naloxone failed to antagonize the pain-relieving effect | 119.1 ± 0.8 *** % |
